Laboratory results: patent US12539299B2, “Oral formulation of a therapeutic compound” (ARDELYX, INC., priority 2020, dated 2026)

Key:
[1] = Dissolution of capsule and tablet prototypes, USP apparatus II (paddle), 75 rpm, 900 mL media, 37° C.; assay type: physicochemical; settings: comparison between forms, prototypes or pH
Description: FIG. 1: Dissolution of 15 mg tenapanor HCl tablets and tenapanor free base tablets in FeSSIF media pH 5.0. Dissolution method: USP apparatus II (paddle), 75 rpm, 900 mL of media at 37° C. FIG. 2: Dissolution of capsule I, neat tenapanor HCl powder in HPMC capsules (Vcaps® from Capsugel®) in FaSSIF media pH 6.5, FeSSIF media pH 5 and in 0.1N HCl. Dissolution method: USP apparatus II (paddle), 75 rpm, 900 mL of media at 37° C. […] Below are the composition of some of the capsule and tablet formulations as well as maximum dissolution observed in 0.1N HCl, pH 5 FeSSIF media and pH 6 FaSSIF media. Tablets from the same prototype designation differed by tenapanor loading and salt/free-base form but had the same disintegrant, glidant and lubricant excipients in the same % w/w but varied in the % w/w of tenapanor and filler making up the remainder of tablet.

[2] = test system: Irritable Bowel Syndrome with Constipation (IBS-C) patients; settings: bis-HCl salt form, clinical; cited from earlier work
[3] = test system: animal model of IBS-like colonic hypersensitivity; settings: cited from earlier work
[4] = test system: patients with hyperphosphatemia; settings: clinical; cited from earlier work

- dissolution, comparison in words [1]: better dissolution at low pH
Structure (SMILES): CN1Cc2c(Cl)cc(Cl)cc2[C@H](c2cccc(S(=O)(=O)NCCOCCOCCNC(=O)NCCCCNC(=O)NCCOCCOCCNS(=O)(=O)c3cccc([C@@H]4CN(C)Cc5c(Cl)cc(Cl)cc54)c3)c2)C1 [tenapanor, 1-[2-[2-[2-[[3-[(4S)-6,8-dichloro-2-methyl-3,4-dihydro-1H-isoquinolin-4-yl]phenyl]sulfonylamino]ethoxy]ethoxy]ethyl]-3-[4-[2-[2-[2-[[3-[(4S)-6,8-dichloro-2-methyl-3,4-dihydro-1H-isoquinolin-4-yl]phenyl]sulfonylamino]ethoxy]ethoxy]ethylcarbamoylamino]butyl]urea]
- abdominal pain [2]: reduce abdominal pain
- colonic sensory neuronal excitability and TRPV1 currents [3]: normalized colonic sensory neuronal excitability and Transient Receptor Potential Vanilloid 1 (TRPV1) currents
- visceral hyperalgesia [3]: reduced visceral hyperalgesia
- serum phosphate [4]: lower serum phosphate
